Assay results: patent US7687501B2, “Pyridothienopyridazinone derivatives as mGluR1 antagonists” (Schering Corporation, priority 2005, dated 2010)
Like-named read-outs stand apart in the source and are kept apart here.

Target: T1, hmGluR1 receptor (Homo sapiens, UniProt Q13255)
T1 construct: expressed in transfected cells; host or cells: CHO
Experiment: IC50 determination: intracellular calcium mobilization (FLIPR) upon Quisqualate stimulation in CHO cell line stably expressing hmGluR1
Assay type: cell-based
Details: CHO cells expressing hmGluR1, against Quisqualate 1 μM (EC80), compounds added 10 minutes before Quisqualate
Procedure: A CHO cell line stably expressing hmGluR1 receptor was established. One day prior to assay, cells were split in growth media at concentration of 50,000 cells/well in a volume of 100 μl and seeded into black clear-bottom 96-well plates. After two to six hours, when cells were well attached to the plate, growth medium was replaced with assay medium (100 μL) consisting of DMEM high glucose, supplemented with GPT (1 U/mL) and sodium pyruvate, 1 mM. Following overnight incubation, medium was discarded and cells were loaded for 2 hours with dye from the Calcium 3 Assay Reagent Kit (Molecular Devices, # R8033), prepared according to manufacturers' instructions. A 96-tip pipettor/fluorometric imaging plate reader (FLIPR 384; Molecular Devices) was used and intracellular calcium mobilization was measured by increases in fluorescence upon agonist Quisqualate stimulation following 6 sec-baseline measurement. Test compounds were added 10 minutes before Quisqualate. IC50 determinations for tested compounds were generated against Quisqualate 1 μM corresponding to EC80 value in a standard dose response curve.

T1 sequence (Q13255 19-1194): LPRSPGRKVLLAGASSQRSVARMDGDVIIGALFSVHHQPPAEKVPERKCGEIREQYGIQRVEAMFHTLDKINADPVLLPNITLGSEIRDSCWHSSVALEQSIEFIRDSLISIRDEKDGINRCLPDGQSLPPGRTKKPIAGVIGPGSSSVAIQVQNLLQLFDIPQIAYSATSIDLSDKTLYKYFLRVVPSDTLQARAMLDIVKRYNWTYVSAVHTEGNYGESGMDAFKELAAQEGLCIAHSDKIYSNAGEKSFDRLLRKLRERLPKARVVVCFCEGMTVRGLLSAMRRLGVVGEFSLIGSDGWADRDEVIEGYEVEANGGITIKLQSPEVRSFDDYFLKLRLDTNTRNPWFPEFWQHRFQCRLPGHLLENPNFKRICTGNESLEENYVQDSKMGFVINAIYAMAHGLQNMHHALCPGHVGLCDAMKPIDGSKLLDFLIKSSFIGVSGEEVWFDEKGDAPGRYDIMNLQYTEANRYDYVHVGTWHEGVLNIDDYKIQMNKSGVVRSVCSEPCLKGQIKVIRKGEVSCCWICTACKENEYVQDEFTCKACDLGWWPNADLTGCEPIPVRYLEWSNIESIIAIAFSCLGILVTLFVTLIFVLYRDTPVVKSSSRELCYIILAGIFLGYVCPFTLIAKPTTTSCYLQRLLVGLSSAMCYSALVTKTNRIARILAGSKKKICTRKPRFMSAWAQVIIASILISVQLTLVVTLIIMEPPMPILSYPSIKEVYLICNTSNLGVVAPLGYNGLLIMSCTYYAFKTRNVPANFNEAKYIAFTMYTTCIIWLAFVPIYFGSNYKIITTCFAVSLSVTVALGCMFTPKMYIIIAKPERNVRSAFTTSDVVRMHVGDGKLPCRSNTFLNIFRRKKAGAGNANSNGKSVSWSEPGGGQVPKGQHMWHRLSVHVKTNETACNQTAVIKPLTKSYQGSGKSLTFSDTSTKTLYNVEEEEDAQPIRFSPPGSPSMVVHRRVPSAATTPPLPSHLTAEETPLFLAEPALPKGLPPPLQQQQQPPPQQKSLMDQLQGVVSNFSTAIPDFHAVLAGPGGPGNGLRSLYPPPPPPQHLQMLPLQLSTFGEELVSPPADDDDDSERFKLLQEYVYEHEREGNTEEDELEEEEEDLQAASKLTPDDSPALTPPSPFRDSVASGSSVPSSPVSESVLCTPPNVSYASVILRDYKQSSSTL

| Compound | IC50 (read-out: mGluR1 IC50 rating) [nM] | IC50 (read-out: mGluR1 IC50) [nM] |
| --- | --- | --- |
| Cc1ccc(-n2ncc3c(sc4nccc(N(C)C)c43)c2=O)cc1 [Compound 9A] | < 20 | 3.6 |
| CN(C)c1ccnc2sc3c(=O)n(-c4ccc5ncsc5c4)ncc3c12 [Compound 9F] | < 20 | 7.8 |
| Cc1nn(C2CCCCC2)c(=O)c2sc3nccc(N(C)C)c3c12 [Compound 13C] | > 1000 |  |
| CN(C)c1ccnc2sc3c(=O)n(-c4ccc5scnc5c4)ncc3c12 [Compound 9E] | < 20 | 4.3 |
| COc1ccc(-n2nc(C)c3c(sc4nccc(N(C)C)c43)c2=O)cc1 [Compound 13D] | > 1000 |  |
| Cc1n[nH]c(=O)c2sc3nccc(N(C)C)c3c12 [Compound 13A] | > 1000 |  |
| CN(C)c1ccnc2sc3c(=O)n(C4CCCCC4)ncc3c12 [Compound 9G] | 20 to 100 |  |
| Cc1ccc(-n2nc(C)c3c(sc4nccc(N(C)C)c43)c2=O)cc1 [Compound 13B] | > 1000 |  |
| CN(C)c1ccnc2sc3c(=O)n(-c4ccc(Cl)cc4)ncc3c12 [Compound 9C] | < 20 | 2.4 |
| COc1ccnc2sc3c(=O)n(-c4ccc(Cl)cc4)ncc3c12 [Compound 21A] | 20 to 100 |  |
| COc1ccnc2sc3c(=O)n(-c4ccc(C)cc4)ncc3c12 [Compound 21C] | < 20 | 12.8 |
| CN(C)c1ccnc2sc3c(=O)n(-c4ccc(Br)cc4)ncc3c12 [Compound 9D] | < 20 | 2.9 |
| COc1ccc(-n2ncc3c(sc4nccc(N(C)C)c43)c2=O)cc1 [Compound 9B] | < 20 | 4.5 |
| COc1ccc(-n2ncc3c(sc4nccc(OC)c43)c2=O)cc1 [Compound 21B] | 20 to 100 |  |

More lines, now with the values ahead:

| IC50 (read-out: mGluR1 IC50 rating) [nM] | IC50 (read-out: mGluR1 IC50) [nM] | Compound |
| --- | --- | --- |
| 20 to 100 |  | CCNc1ccnc2sc3c(=O)n(-c4ccc(Cl)cc4)ncc3c12 [Compound 23K] |
| 100 to 1000 |  | C#CCNc1ccnc2sc3c(=O)n(-c4ccc(OC)cc4)ncc3c12 [Compound 23M] |
| 100 to 1000 |  | COc1ccc(-n2ncc3c(sc4nccc(NC5CC5)c43)c2=O)cc1 [Compound 23B] |
| < 20 | 13.7 | O=c1c2sc3nccc(NC4CC4)c3c2cnn1-c1ccc(Cl)cc1 [Compound 23A] |
| 20 to 100 |  | COc1ncnc2sc3c(=O)n(-c4ccc(Cl)cc4)ncc3c12 [Compound 34A] |
| 100 to 1000 |  | CCNc1ccnc2sc3c(=O)n(-c4ccc(OC)cc4)ncc3c12 [Compound 23O] |
| 20 to 100 |  | O=c1c2sc3nccc(NCCO)c3c2cnn1-c1ccc(Cl)cc1 [Compound 23D] |
| 100 to 1000 |  | COc1ccc(-n2ncc3c(sc4ncnc(OC)c43)c2=O)cc1 [Compound 34B] |
| 100 to 1000 |  | COc1ccc(-n2ncc3c(sc4nccc(NCCO)c43)c2=O)cc1 [Compound 23F] |
| 100 to 1000 |  | Cc1ccc(-n2ncc3c(sc4nccc(NCCO)c43)c2=O)cc1 [Compound 23H] |
| 100 to 1000 |  | CNc1ncnc2sc3c(=O)n(-c4ccc(OC)cc4)ncc3c12 [Compound 35C] |
| 100 to 1000 |  | CCNc1ncnc2sc3c(=O)n(-c4ccc(OC)cc4)ncc3c12 [Compound 35A] |
| 20 to 100 |  | CNc1ccnc2sc3c(=O)n(-c4ccc(C)cc4)ncc3c12 [Compound 23Q] |
| 20 to 100 |  | CNc1ccnc2sc3c(=O)n(-c4ccc(OC)cc4)ncc3c12 [Compound 23N] |
| 100 to 1000 |  | COc1ccc(-n2ncc3c(sc4nccc(N5CC(O)C5)c43)c2=O)cc1 [Compound 23P] |
| < 20 | 3.6 | COc1ccc(-n2ncc3c(sc4nccc(N(C)N)c43)c2=O)cc1 [Compound 23I] |
| 100 to 1000 |  | O=c1c2sc3nccc(NC4CCC4)c3c2cnn1-c1ccc(Cl)cc1 [Compound 23J] |
| < 20 |  | CNc1ccnc2sc3c(=O)n(-c4ccc(Cl)cc4)ncc3c12 [Compound 23C] |
| 100 to 1000 |  | COc1ccc(-n2ncc3c(sc4nccc(N5CCC5)c43)c2=O)cc1 [Compound 23L] |
| 20 to 100 |  | C#CCNc1ccnc2sc3c(=O)n(-c4ccc(C)cc4)ncc3c12 [Compound 23S] |
| > 1000 |  | COCCNc1ccnc2sc3c(=O)n(-c4ccc(OC)cc4)ncc3c12 [Compound 23E] |
| < 20 | 18 | CCNc1ccnc2sc3c(=O)n(-c4ccc(C)cc4)ncc3c12 [Compound 23R] |
| 20 to 100 |  | COc1ccc(-n2ncc3c(sc4ncnc(NC5CC5)c43)c2=O)cc1 [Compound 35B] |
| < 20 | 18.5 | Cc1ccc(-n2ncc3c(sc4nccc(NC5CC5)c43)c2=O)cc1 [Compound 23G] |
